From ChEMBL document CHEMBL1201862, “PubChem BioAssay data set” (2004)
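Compound exposure: 48 hours, 5 concentrations, 96-well plates. At the GI50, growth is halved.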 Calls of active or inactive are those of the source. Rule as the data show it: active = GI50 up to about 1.1 µM and inactive = higher.

Columns and labels:
Experiment in all cases: growth of human tumour cells (NCI), 48 h
HCT-15 = tested on: HCT-15
NCI-H460 = tested on: NCI-H460
LOX IMVI = tested on: LOX IMVI
DMS-114 = tested on: DMS-114
UO-31 = tested on: UO-31
U-251 = tested on: U-251
OVCAR-4 = tested on: OVCAR-4
M19-MEL = tested on: M19-MEL
SN12C = tested on: SN12C
SK-MEL-5 = tested on: SK-MEL-5
ACHN = tested on: ACHN
UACC-62 = tested on: UACC-62
UACC-257 = tested on: UACC-257
SK-MEL-28 = tested on: SK-MEL-28
Malme-3M = tested on: Malme-3M
COLO 205 = tested on: COLO 205
SF-268 = tested on: SF-268
NCI-H23 = tested on: NCI-H23
LXFL 529 = tested on: LXFL 529
OVCAR-5 = tested on: OVCAR-5
HCC 2998 = tested on: HCC 2998
OVCAR-8 = tested on: OVCAR-8
K562 = tested on: K562
SF-295 = tested on: SF-295
CAKI-1 = tested on: CAKI-1
XF498 = tested on: XF498
SF-539 = tested on: SF-539
SNB-75 = tested on: SNB-75
EKVX = tested on: EKVX
HCT-116 = tested on: HCT-116
RXF 393 = tested on: RXF 393
A549 = tested on: A549
HL-60 = tested on: HL-60
NCI-H226 = tested on: NCI-H226
A498 = tested on: A498
SNB-19 = tested on: SNB-19
CCRF-CEM = tested on: CCRF-CEM
SR = tested on: SR
SK-MEL-2 = tested on: SK-MEL-2
DMS-273 = tested on: DMS-273
HOP-62 = tested on: HOP-62
M14 = tested on: M14
MOLT-4 = tested on: MOLT-4
KM-20L2 = tested on: KM-20L2
OVCAR-3 = tested on: OVCAR-3
SW-620 = tested on: SW-620
786-0 = tested on: 786-0
HT-29 = tested on: HT-29
SNB-78 = tested on: SNB-78
KM12 = tested on: KM12
HOP-92 = tested on: HOP-92
IGROV-1 = tested on: IGROV-1
TK-10 = tested on: TK-10
RPMI-8226 = tested on: RPMI-8226
DLD-1 = tested on: DLD-1
NCI-H522 = tested on: NCI-H522

In the case of CC(C)(C)C1=CC(=N/N=c2\scc(-c3ccccc3)n2Cc2ccccc2)C=C(C(C)(C)C)C1=O, the GI50 (HCT-15) is reported as greater than 100 µM, the GI50 (NCI-H460) is reported as > 100 µM (inactive) and the GI50 (LOX IMVI) is reported as > 100 µM (inactive). For the same compound, the GI50 (DMS-114) was > 100 µM (inactive), the GI50 (UO-31) was > 100 µM (inactive) and the GI50 (U-251) was > 100 µM (inactive). For the same compound, the GI50 (OVCAR-4) was > 100 µM (inactive), the GI50 (M19-MEL) was > 100 µM (inactive) and the GI50 (SN12C) was > 100 µM (inactive). For the same compound, the GI50 (SK-MEL-5) was > 100 µM (inactive), the GI50 (ACHN) was > 100 µM (inactive) and the GI50 (UACC-62) was > 100 µM (inactive). The GI50 (UACC-257) was > 100 µM (inactive), the GI50 (SK-MEL-28) was > 100 µM (inactive) and the GI50 (Malme-3M) was > 100 µM (inactive). The GI50 (COLO 205) was > 100 µM (inactive), the GI50 (SF-268) was > 100 µM (inactive) and the GI50 (NCI-H23) was > 100 µM (inactive). The GI50 (LXFL 529) was > 100 µM (inactive), the GI50 (OVCAR-5) was > 100 µM (inactive) and the GI50 (HCC 2998) was > 100 µM (inactive). The GI50 (OVCAR-8) was > 100 µM (inactive), the GI50 (K562) was > 100 µM (inactive) and the GI50 (SF-295) was > 100 µM (inactive). The GI50 (CAKI-1) was > 100 µM (inactive), the GI50 (XF498) was > 100 µM (inactive) and the GI50 (SF-539) was > 100 µM (inactive). For the same compound, the GI50 (SNB-75) was > 100 µM (inactive), the GI50 (EKVX) was > 100 µM (inactive) and the GI50 (HCT-116) was > 100 µM (inactive). The GI50 (RXF 393) was > 100 µM (inactive), the GI50 (A549) was > 100 µM (inactive) and the GI50 (HL-60) was > 100 µM (inactive). For the same compound, the GI50 (NCI-H226) was > 100 µM (inactive), the GI50 (A498) was > 100 µM (inactive) and the GI50 (SNB-19) was > 100 µM (inactive). For the same compound, the GI50 (CCRF-CEM) was > 100 µM (inactive), the GI50 (SR) was > 100 µM (inactive) and the GI50 (SK-MEL-2) was > 100 µM (inactive). The GI50 (DMS-273) was > 100 µM (inactive), the GI50 (HOP-62) was > 100 µM (inactive) and the GI50 (M14) was > 100 µM (inactive). The GI50 (MOLT-4) was > 100 µM (inactive), the GI50 (KM-20L2) was > 100 µM (inactive) and the GI50 (OVCAR-3) was > 100 µM (inactive). For the same compound, the GI50 (SW-620) was > 100 µM (inactive), the GI50 (786-0) was > 100 µM (inactive) and the GI50 (HT-29) was > 100 µM (inactive).

In the case of CCc1cc2c(O)c(c1)Cc1cc(CC)cc(c1O)Cc1cc(CC)cc(c1O)Cc1cc(CC)cc(c1O)Cc1cc(CC)cc(c1O)Cc1cc(CC)cc(c1O)Cc1cc(CC)cc(c1O)C2, the GI50 (HCT-15) is reported as greater than 100 µM, the GI50 (NCI-H460) is reported as > 100 µM (inactive) and the GI50 (SNB-78) is reported as 55 µM (inactive). For the same compound, the GI50 (DMS-114) was > 100 µM (inactive), the GI50 (UO-31) was > 100 µM (inactive) and the GI50 (U-251) was 62.8 µM (inactive). The GI50 (KM12) was > 100 µM (inactive), the GI50 (OVCAR-4) was > 100 µM (inactive) and the GI50 (HOP-92) was 44 µM (inactive). The GI50 (IGROV-1) was > 100 µM (inactive), the GI50 (M19-MEL) was > 100 µM (inactive) and the GI50 (SN12C) was > 100 µM (inactive). The GI50 (SK-MEL-5) was > 100 µM (inactive), the GI50 (TK-10) was > 100 µM (inactive) and the GI50 (ACHN) was > 100 µM (inactive). For the same compound, the GI50 (UACC-62) was > 100 µM (inactive), the GI50 (UACC-257) was > 100 µM (inactive) and the GI50 (SK-MEL-28) was > 100 µM (inactive). For the same compound, the GI50 (Malme-3M) was > 100 µM (inactive), the GI50 (COLO 205) was > 100 µM (inactive) and the GI50 (SF-268) was > 100 µM (inactive). The GI50 (NCI-H23) was > 100 µM (inactive), the GI50 (LXFL 529) was > 100 µM (inactive) and the GI50 (RPMI-8226) was > 100 µM (inactive). For the same compound, the GI50 (OVCAR-5) was > 100 µM (inactive), the GI50 (HCC 2998) was > 100 µM (inactive) and the GI50 (OVCAR-8) was > 100 µM (inactive). The GI50 (K562) was > 10 µM (inactive), the GI50 (SF-295) was > 100 µM (inactive) and the GI50 (XF498) was 48.2 µM (inactive). For the same compound, the GI50 (SF-539) was > 100 µM (inactive), the GI50 (SNB-75) was 28.6 µM (inactive) and the GI50 (EKVX) was > 100 µM (inactive). For the same compound, the GI50 (HCT-116) was > 100 µM (inactive), the GI50 (RXF 393) was 16.9 µM (inactive) and the GI50 (A549) was > 100 µM (inactive). For the same compound, the GI50 (HL-60) was > 100 µM (inactive), the GI50 (SNB-19) was 22.1 µM (inactive) and the GI50 (DLD-1) was > 100 µM (inactive). The GI50 (CCRF-CEM) was > 100 µM (inactive), the GI50 (NCI-H522) was > 100 µM (inactive) and the GI50 (SK-MEL-2) was > 100 µM (inactive). For the same compound, the GI50 (DMS-273) was > 100 µM (inactive), the GI50 (HOP-62) was > 100 µM (inactive) and the GI50 (M14) was > 100 µM (inactive). For the same compound, the GI50 (MOLT-4) was 78.2 µM (inactive), the GI50 (KM-20L2) was > 100 µM (inactive) and the GI50 (OVCAR-3) was > 100 µM (inactive). The GI50 (SW-620) was > 100 µM (inactive), the GI50 (786-0) was > 100 µM (inactive) and the GI50 (HT-29) was > 100 µM (inactive).
